Earlier results, collected in patent US20110208118A1, “COMPOSITIONS AND MEANS FOR TREATING UTERINE LEIOMYOMATA, LEIOMYOMA, MYOMA, UTERINE FIBROIDS, ENDOMETRIOSIS, ADENOMYOSIS AND RELATED DISORDERS BY MIFEPRISTONE” (Bio-Pro Medical Ltd., priority 2007, published 2011).

System: uterine leiomyomata
[1] = oral mifepristone doses of 5 mg-50 mg

In the case of `CC#C[C@]1(O)CC[C@H]2[C@@H]3CCC4=CC(=O)CCC4=C3[C@@H](c3ccc(N(C)C)cc3)C[C@@]21C` [mifepristone], the “Reduction in volume of leiomyomata, 10 mg vs 20 mg groups” value (10 mg and 20 mg mifepristone daily for 12 weeks, women with large leiomyomata (Yang et al.)) is listed as “equivalent in the two groups”, the “regression in the size of uterine leiomyomata” value (5, 25, and 50 mg of mifepristone daily for 12 weeks (Murphy et al.)) is listed as “clinically significant regression” and the “uterine and uterine fibroids size” value [1] is listed as “reduction in uterine and uterine fibroids size”. The uterine fibroids symptoms [1] was “improvement in uterine fibroids symptoms”.
